Laboratory results published in the NIST ThermoML archive (doi:10.1021/je9004905).
Values joined by “and” are separate entries in the source; they are usually repeats but may differ in a detail not shown here. Equal values may be shown once. ± gives the expanded uncertainty stated by the source.

Details: Liquid, Closed cell (Static) method

OCCO [1,2-ethanediol]
Details | vapor or sublimation pressure [kPa]
307.7 K | 0.028 ± 0.002
312.6 K | 0.041 ± 0.004
316.5 K | 0.055 ± 0.006
318.8 K | 0.061 ± 0.006
322.1 K | 0.077 ± 0.008
326.1 K | 0.107 ± 0.01
328.2 K | 0.124 ± 0.012
334.5 K | 0.196 ± 0.026
335.2 K | 0.201 ± 0.028
340.2 K | 0.278 ± 0.039
347.9 K | 0.454 ± 0.065
359.2 K | 0.9 ± 0.12
367.9 K | 1.483 ± 0.19
373.4 K | 1.95 ± 0.27
384.5 K | 3.467 ± 0.47

O=CCO [2-hydroxyacetaldehyde]
Details | vapor or sublimation pressure [kPa]
295.85 K | 0.0037 ± 0.0004
305.1 K | 0.009 ± 0.0011
305.51 K | 0.0096 ± 0.0024
319.5 K | 0.0335 ± 0.0057
319.84 K | 0.0335 ± 0.0057
322.38 K | 0.0368 ± 0.0057
323.64 K | 0.0458 ± 0.0069
327.73 K | 0.062 ± 0.011
333.04 K | 0.0984 ± 0.02
339.32 K | 0.153 ± 0.018
340.91 K | 0.17 ± 0.02
341.95 K | 0.182 ± 0.024
342.82 K | 0.198 ± 0.03
346.83 K | 0.253 ± 0.036
355.98 K | 0.486 ± 0.052

CC(=O)CO [acetol]
Details | vapor or sublimation pressure
273.22 K | 0.127 ± 0.018 kPa
275.48 K | 0.136 ± 0.018 kPa
277.78 K | 0.162 ± 0.022 kPa
278.55 K | 0.167 ± 0.022 kPa and 0.172 ± 0.022 kPa
280.9 K | 0.201 ± 0.084 kPa
281.69 K | 0.205 ± 0.026 kPa and 0.21 ± 0.026 kPa
289.86 K | 0.356 ± 0.042 kPa
290.7 K | 0.363 ± 0.042 kPa and 0.36 ± 0.042 kPa
293.26 K | 0.431 ± 0.05 kPa
295.86 K | 0.516 ± 0.06 kPa and 0.495 ± 0.058 kPa
296.74 K | 0.531 ± 0.062 kPa
300.3 K | 0.617 ± 0.07 kPa
301.2 K | 0.642 ± 0.072 kPa
302.11 K | 0.717 ± 0.08 kPa
303.03 K | 0.746 ± 0.084 kPa
303.95 K | 0.817 ± 0.092 kPa
